We go through two compounds from patent US11793982B2, “Drug delivery devices and methods of fabrication and use therefor” (Purdue Research Foundation, priority 2020, dated 2023).

The structures appear in SMILES notation.

Series [1] deals with epidermis and subcutaneous muscle on the backside of mice. Description: In vivo tissue compatibility, real-time bioluminescence (luminol) imaging of acute inflammation. The conditions noted are these: five hours post-injection.
Series [2] deals with B16F10 murine melanoma cells. The conditions noted are these: cited from earlier work.
The next series concerns B16F10 melanoma cells. Description: Murine melanoma model, inhibition of post-surgical residual melanoma. The series is classed as in vivo, C57BL/6 mice.
A further series relates to mice. The conditions noted are these: cited from earlier work.

`CCCCCCCCCCCCCC(=O)O[C@@H]1[C@@H](C)[C@@]2(O)[C@@H](C=C(CO)C[C@]3(O)C(=O)C(C)=C[C@@H]23)[C@@H]2C(C)(C)[C@]12OC(C)=O` [PMA, phorbol 12-myristate 13-acetate]: in series [1], the “acute inflammation at the implemented sites” value is reported as “acute inflammation appeared”.

Consider `COc1cccc2c1C(=O)c1c(O)c3c(c(O)c1C2=O)C[C@@](O)(C(=O)CO)C[C@@H]3O[C@H]1C[C@H](N)[C@H](O)[C@H](C)O1` [DOX, doxorubicin], for which, in series [2], the “half maximal inhibitory concentration (IC50)” value is listed as “about 0.3 μg/ml”. Also, the “mice with significant growth of the tumors” value with B16F10 melanoma cells (intratumoral syringe injection, single dose 50 μl, n=5, ten days post-inoculation) was “four out of five mice”. The local skin lesions result with B16F10 melanoma cells (syringe injection) is reported as “local skin lesions were observed”. In addition, in the series with mice, the “lethal dose (LD50)” value is on record as “about 192 μg”.
